Holding throughout (assay): relative viability (nuclei count vs DMSO), 5 days (fraction); higher = more cells survive
Compound in assay [1]: Cc1ccc(-n2nc(C(C)(C)C)cc2NC(=O)Nc2ccc(OCCN3CCOCC3)c3ccccc23)cc1 [Doramapimod] + COc1cccc2cc(-c3nc([C@H]4CC[C@H](C(=O)O)CC4)n4ncnc(N)c34)[nH]c12 [OSI-027] (partner 0.5 µM)
The method, boiled down: (§1)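 Cells from lung cancer lines were seeded into 1536-well plates and, one day later, dosed by pin tool. Treatments were either a single drug or a fixed dose of an anchor drug with five library-drug doses (not always all listed) in √10 steps. After 5 days, nuclei were stained in a one-step fixation (final 0.05% Triton X-100, 1% formaldehyde, 1 ug/ml Hoechst) and counted on 4× images, and relative viability is the treated-to-vehicle nuclei ratio, as the median of duplicate plates.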

Compound in assay [2]: C1=CC=C2C(=C1)C=CC(=C2SSC3=C(C=CC4=CC=CC=C43)O)O [IPA-3] + Cc1cc(Nc2cc(N3CCN(C)CC3)nc(Sc3ccc(NC(=O)C4CC4)cc3)n2)n[nH]1 [Tozasertib] (partner 0.1 µM)
Put shortly:
as §1

Compound in assay [3]: Cn1c(Nc2ccc(C(F)(F)F)cc2)nc2cc(Oc3ccnc(-c4ncc(C(F)(F)F)[nH]4)c3)ccc21 [RAF265] + O=C(CCCCCCC(=O)Nc1ccccc1)NO [Vorinostat] (partner 1 µM)
Put shortly: as §1

Compound in assay [4]: Cn1c(Nc2ccc(C(F)(F)F)cc2)nc2cc(Oc3ccnc(-c4ncc(C(F)(F)F)[nH]4)c3)ccc21 [RAF265] + CS(=O)(=O)N1CCN(Cc2cc3nc(-c4cccc5[nH]ncc45)nc(N4CCOCC4)c3s2)CC1 [Pictilisib] (partner 1 µM)
The method, boiled down:
as §1

This note sets out measurements from the supplement of paper PMC10307832.

On to NCI-H1395, for which the relative viability in assay [1] (first compound 0.02 µM) stood at 0.617; in assay [1] (first compound 0.06325 µM), 0.728; in assay [1] (first compound 0.2 µM) it was 0.702; in assay [1] (first compound 0.6325 µM), 0.826; in assay [1] (first compound 2 µM), 0.523; in assay [2] (first compound 0.2 µM), 0.732. Also, the relative viability worked out at 0.761 in assay [2] (first compound 0.6325 µM); 0.72 in assay [2] (first compound 2 µM); 0.733 in assay [2] (first compound 6.325 µM); 0.8 in assay [2] (first compound 20 µM); 0.791 in assay [3] (first compound 0.01 µM); 0.65 in assay [3] (first compound 0.03162 µM). Besides, the relative viability was 0.807 in assay [3] (first compound 0.1 µM); 0.554 in assay [3] (first compound 0.3162 µM); 0.587 in assay [3] (first compound 1 µM); 0.632 in assay [4] (first compound 0.01 µM); 0.574 in assay [4] (first compound 0.03162 µM); 0.568 in assay [4] (first compound 0.1 µM). For the same cell line, the relative viability in assay [4] (first compound 0.3162 µM) was 0.449; in assay [4] (first compound 1 µM), 0.507.

On to NCI-H1437, for which the relative viability is 0.953 in assay [1] (first compound 0.02 µM); 0.883 in assay [1] (first compound 0.06325 µM); 0.852 in assay [1] (first compound 0.2 µM); 0.938 in assay [1] (first compound 0.6325 µM); 0.866 in assay [1] (first compound 2 µM); 0.482 in assay [2] (first compound 0.2 µM). Moreover, the relative viability in assay [2] (first compound 0.6325 µM) worked out at 0.387; in assay [2] (first compound 2 µM), 0.416; in assay [2] (first compound 6.325 µM), 0.394; in assay [2] (first compound 20 µM), 0.468; in assay [3] (first compound 0.01 µM), 0.823; in assay [3] (first compound 0.03162 µM), 0.778. For the same cell line, the relative viability came out at 0.947 in assay [3] (first compound 0.1 µM); 0.887 in assay [3] (first compound 0.3162 µM); 0.715 in assay [3] (first compound 1 µM); 0.613 in assay [4] (first compound 0.01 µM); 0.428 in assay [4] (first compound 0.03162 µM); 0.455 in assay [4] (first compound 0.1 µM). Besides, the relative viability in assay [4] (first compound 0.3162 µM) came to 0.475; in assay [4] (first compound 1 µM), 0.274.

NCI-H1650: the relative viability in assay [1] (first compound 0.02 µM) worked out at 0.692; in assay [1] (first compound 0.06325 µM), 0.689; in assay [1] (first compound 0.2 µM) it was 0.713; in assay [1] (first compound 0.6325 µM), 0.76; in assay [1] (first compound 2 µM) it was 0.459; in assay [2] (first compound 0.2 µM) it was 0.485. Also, the relative viability was determined as 0.414 in assay [2] (first compound 0.6325 µM); 0.489 in assay [2] (first compound 2 µM); 0.421 in assay [2] (first compound 6.325 µM); 0.517 in assay [2] (first compound 20 µM); 0.615 in assay [3] (first compound 0.01 µM); 0.587 in assay [3] (first compound 0.03162 µM). For the same cell line, the relative viability in assay [3] (first compound 0.1 µM) was 0.595; in assay [3] (first compound 0.3162 µM) it was 0.655; in assay [3] (first compound 1 µM), 0.566; in assay [4] (first compound 0.01 µM), 0.642; in assay [4] (first compound 0.03162 µM) it was 0.528; in assay [4] (first compound 0.1 µM), 0.755. The values for the relative viability in assay [4] (first compound 0.3162 µM) and in assay [4] (first compound 1 µM) were 0.348 and 0.583, respectively.

As to NCI-H1651, the relative viability in assay [1] (first compound 0.02 µM) worked out at 0.751; in assay [1] (first compound 0.06325 µM), 0.701; in assay [1] (first compound 0.2 µM), 0.727; in assay [1] (first compound 0.6325 µM), 0.729; in assay [1] (first compound 2 µM) it was 0.656; in assay [2] (first compound 0.2 µM), 0.727. The relative viability in assay [2] (first compound 0.6325 µM) was 0.613; in assay [2] (first compound 2 µM), 0.883; in assay [2] (first compound 6.325 µM), 0.708; in assay [2] (first compound 20 µM) it was 0.691; in assay [3] (first compound 0.01 µM), 0.61; in assay [3] (first compound 0.03162 µM), 0.637. For the same cell line, the relative viability in assay [3] (first compound 0.1 µM) worked out at 0.521; in assay [3] (first compound 0.3162 µM), 0.591; in assay [3] (first compound 1 µM), 0.453; in assay [4] (first compound 0.01 µM), 0.523; in assay [4] (first compound 0.03162 µM) it was 0.539; in assay [4] (first compound 0.1 µM), 0.433. Further, the relative viability in assay [4] (first compound 0.3162 µM) turned out to be 0.397; in assay [4] (first compound 1 µM) it was 0.463.

For NCI-H1666, the relative viability amounted to 0.974 in assay [1] (first compound 0.02 µM); 0.852 in assay [1] (first compound 0.06325 µM); 0.846 in assay [1] (first compound 0.2 µM); 0.787 in assay [1] (first compound 0.6325 µM); 0.772 in assay [1] (first compound 2 µM); 0.611 in assay [2] (first compound 0.2 µM). In addition, the relative viability in assay [2] (first compound 0.6325 µM) is 0.604; in assay [2] (first compound 2 µM) it was 0.594; in assay [2] (first compound 6.325 µM) it was 0.6; in assay [2] (first compound 20 µM) it was 0.703; in assay [3] (first compound 0.01 µM), 1.13; in assay [3] (first compound 0.03162 µM), 0.923. For the same cell line, the relative viability in assay [3] (first compound 0.1 µM) was 0.906; in assay [3] (first compound 0.3162 µM), 0.99; in assay [3] (first compound 1 µM), 0.854; in assay [4] (first compound 0.01 µM) it was 0.583; in assay [4] (first compound 0.03162 µM), 0.453; in assay [4] (first compound 0.1 µM), 0.329. For the same cell line, the relative viability is 0.426 in assay [4] (first compound 0.3162 µM) and 0.249 in assay [4] (first compound 1 µM).

As for NCI-H1734, the relative viability in assay [1] (first compound 0.02 µM) turned out to be 0.55; in assay [1] (first compound 0.06325 µM), 0.508; in assay [1] (first compound 0.2 µM), 0.537; in assay [1] (first compound 0.6325 µM) it was 0.589; in assay [1] (first compound 2 µM), 0.448; in assay [2] (first compound 0.2 µM), 0.275. In addition, the relative viability in assay [2] (first compound 0.6325 µM) stood at 0.269; in assay [2] (first compound 2 µM), 0.251; in assay [2] (first compound 6.325 µM), 0.306; in assay [2] (first compound 20 µM), 0.23; in assay [3] (first compound 0.01 µM), 0.801; in assay [3] (first compound 0.03162 µM) it was 0.715. Moreover, the relative viability in assay [3] (first compound 0.1 µM) stood at 0.731; in assay [3] (first compound 0.3162 µM), 0.536; in assay [3] (first compound 1 µM), 0.322; in assay [4] (first compound 0.01 µM), 0.479; in assay [4] (first compound 0.03162 µM), 0.334; in assay [4] (first compound 0.1 µM) it was 0.438. The relative viability in assay [4] (first compound 0.3162 µM) came out at 0.276; in assay [4] (first compound 1 µM), 0.228.
